Assay results published in patent US11497752B2, “Compounds and uses thereof” (Foghorn Therapeutics Inc., priority 2018, dated 2022).

What was measured:
[1] = target: BRM (Homo sapiens, UniProt P51531); test: ATPase catalytic activity of BRM (ADP-Glo in vitro biochemical assay)
[2] = target: BRG-1 (Homo sapiens, UniProt P51532); test: ATPase catalytic activity of BRG-1 (ADP-Glo in vitro biochemical assay)
Sequence of BRG-1 (P51532 whole entry): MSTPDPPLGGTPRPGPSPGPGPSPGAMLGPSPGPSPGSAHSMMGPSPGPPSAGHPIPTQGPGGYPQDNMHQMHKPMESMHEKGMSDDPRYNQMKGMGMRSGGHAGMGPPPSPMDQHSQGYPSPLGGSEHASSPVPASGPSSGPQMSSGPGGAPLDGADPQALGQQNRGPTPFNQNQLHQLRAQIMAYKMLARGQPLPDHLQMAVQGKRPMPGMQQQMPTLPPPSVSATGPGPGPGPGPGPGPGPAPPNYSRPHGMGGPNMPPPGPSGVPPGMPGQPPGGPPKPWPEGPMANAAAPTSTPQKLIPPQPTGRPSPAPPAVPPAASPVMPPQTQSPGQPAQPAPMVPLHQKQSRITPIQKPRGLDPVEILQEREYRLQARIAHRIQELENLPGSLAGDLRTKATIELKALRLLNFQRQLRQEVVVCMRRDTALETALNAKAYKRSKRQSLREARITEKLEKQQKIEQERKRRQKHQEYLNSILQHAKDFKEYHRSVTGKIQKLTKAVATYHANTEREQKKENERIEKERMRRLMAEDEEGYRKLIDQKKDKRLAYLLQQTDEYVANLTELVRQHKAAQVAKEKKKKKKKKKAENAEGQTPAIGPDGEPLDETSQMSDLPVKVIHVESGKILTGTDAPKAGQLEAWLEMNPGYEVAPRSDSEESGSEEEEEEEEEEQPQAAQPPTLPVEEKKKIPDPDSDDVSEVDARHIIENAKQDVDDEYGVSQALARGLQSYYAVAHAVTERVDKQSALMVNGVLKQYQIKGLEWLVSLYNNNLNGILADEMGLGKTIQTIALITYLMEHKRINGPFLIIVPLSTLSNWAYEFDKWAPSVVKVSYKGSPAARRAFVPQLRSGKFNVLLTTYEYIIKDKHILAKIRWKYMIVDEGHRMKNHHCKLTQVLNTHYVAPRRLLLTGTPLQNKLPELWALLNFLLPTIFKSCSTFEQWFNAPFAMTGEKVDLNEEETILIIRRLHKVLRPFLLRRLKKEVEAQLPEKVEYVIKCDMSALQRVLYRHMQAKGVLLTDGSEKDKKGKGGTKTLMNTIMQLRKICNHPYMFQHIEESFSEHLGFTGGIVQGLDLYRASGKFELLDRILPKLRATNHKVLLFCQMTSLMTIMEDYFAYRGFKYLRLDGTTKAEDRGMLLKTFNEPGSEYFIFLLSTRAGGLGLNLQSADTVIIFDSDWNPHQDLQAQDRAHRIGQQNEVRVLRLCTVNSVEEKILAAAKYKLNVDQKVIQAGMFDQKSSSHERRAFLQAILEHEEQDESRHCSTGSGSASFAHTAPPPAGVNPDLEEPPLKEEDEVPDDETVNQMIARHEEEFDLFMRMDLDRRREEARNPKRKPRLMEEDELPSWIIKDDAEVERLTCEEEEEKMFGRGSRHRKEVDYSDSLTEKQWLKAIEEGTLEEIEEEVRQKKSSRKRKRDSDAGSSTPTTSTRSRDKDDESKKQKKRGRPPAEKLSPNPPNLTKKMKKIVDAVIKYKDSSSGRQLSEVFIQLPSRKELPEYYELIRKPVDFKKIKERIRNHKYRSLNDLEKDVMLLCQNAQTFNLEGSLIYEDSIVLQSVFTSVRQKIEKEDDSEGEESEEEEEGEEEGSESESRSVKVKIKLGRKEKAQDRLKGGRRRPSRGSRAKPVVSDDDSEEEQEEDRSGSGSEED

Sequence of BRM (P51531 whole entry): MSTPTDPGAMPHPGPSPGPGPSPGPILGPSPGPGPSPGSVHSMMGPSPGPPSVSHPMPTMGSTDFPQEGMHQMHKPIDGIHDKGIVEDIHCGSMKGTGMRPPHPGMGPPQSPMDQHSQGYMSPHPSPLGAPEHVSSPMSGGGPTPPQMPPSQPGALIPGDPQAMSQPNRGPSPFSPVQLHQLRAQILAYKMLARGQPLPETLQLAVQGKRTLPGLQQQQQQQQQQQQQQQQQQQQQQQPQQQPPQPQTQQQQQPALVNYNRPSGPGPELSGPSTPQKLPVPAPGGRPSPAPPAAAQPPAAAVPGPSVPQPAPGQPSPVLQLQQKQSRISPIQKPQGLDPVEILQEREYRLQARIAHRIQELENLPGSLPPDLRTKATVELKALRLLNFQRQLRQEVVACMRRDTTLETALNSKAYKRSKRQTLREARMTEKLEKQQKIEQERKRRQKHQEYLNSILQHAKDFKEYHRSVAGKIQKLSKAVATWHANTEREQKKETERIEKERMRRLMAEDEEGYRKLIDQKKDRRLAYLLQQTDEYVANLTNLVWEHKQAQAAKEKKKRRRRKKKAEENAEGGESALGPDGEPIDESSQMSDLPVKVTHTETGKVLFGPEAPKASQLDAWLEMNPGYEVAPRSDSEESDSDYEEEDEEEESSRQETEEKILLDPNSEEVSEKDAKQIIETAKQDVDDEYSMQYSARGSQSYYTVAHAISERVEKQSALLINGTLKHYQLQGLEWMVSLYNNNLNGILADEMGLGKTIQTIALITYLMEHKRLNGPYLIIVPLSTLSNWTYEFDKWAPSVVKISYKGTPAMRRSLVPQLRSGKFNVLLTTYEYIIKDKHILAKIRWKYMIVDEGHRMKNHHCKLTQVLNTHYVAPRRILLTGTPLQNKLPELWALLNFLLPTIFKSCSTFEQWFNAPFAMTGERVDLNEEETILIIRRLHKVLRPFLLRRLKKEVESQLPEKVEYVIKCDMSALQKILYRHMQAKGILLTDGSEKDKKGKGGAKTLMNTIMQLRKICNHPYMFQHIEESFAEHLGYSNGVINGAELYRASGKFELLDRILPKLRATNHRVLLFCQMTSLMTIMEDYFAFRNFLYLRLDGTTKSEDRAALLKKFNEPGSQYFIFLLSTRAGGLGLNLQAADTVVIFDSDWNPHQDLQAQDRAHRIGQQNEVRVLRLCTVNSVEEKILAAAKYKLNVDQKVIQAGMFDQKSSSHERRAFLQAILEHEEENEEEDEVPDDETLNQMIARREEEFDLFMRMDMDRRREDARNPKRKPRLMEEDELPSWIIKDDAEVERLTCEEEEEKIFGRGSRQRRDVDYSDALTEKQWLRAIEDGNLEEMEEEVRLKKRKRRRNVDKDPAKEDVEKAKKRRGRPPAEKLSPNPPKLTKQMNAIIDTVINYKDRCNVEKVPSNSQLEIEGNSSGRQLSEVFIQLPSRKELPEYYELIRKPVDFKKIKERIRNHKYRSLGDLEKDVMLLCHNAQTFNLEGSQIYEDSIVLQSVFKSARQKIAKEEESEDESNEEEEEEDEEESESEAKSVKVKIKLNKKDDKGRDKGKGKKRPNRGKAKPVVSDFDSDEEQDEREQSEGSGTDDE

| Structure (SMILES) | IC50 [1] [µM] | BRM Max % Inhibition ([1]; Table 6) [%] | IC50 [2] [µM] | BRG1 Max % Inhibition ([2]; Table 6) [%] | BRM Max % Inhibition ([1]; Table 5) [%] | BRG1 Max % Inhibition ([2]; Table 5) [%] |
| --- | --- | --- | --- | --- | --- | --- |
| Nc1ccc(C(=O)NCC(=O)Nc2nc(-c3cccc(N4CCS(=O)(=O)CC4)c3)cs2)cc1 [Compound 185, 4-amino-N-(2-((4-(3-(1,1-dioxidothiomorpholino)phenyl)thiazol-2-yl)amino)-2-oxoethyl)benzamide] | 0.1 to 1 | >80 | 0.1 to 1 | >70 |  |  |
| CSCC[C@H](NC(=O)c1ccc(NS(C)(=O)=O)cc1)C(=O)Nc1nc(-c2ccccc2)cs1 [Compound 38, 4-(methanesulfonamido)-N-[(1S)-3-methylsulfanyl-1-[(4-phenylthiazol-2-yl)carbamoyl]propyl]benzamide] | > 10 |  | > 10 |  | >80 | >80 |
| CSCC[C@H](NC(=O)c1ccccc1)C(=O)Nc1nc(-c2cccc(-c3ccncc3)c2)cs1 [Compound 97, (S)-N-(4-(methylthio)-1-oxo-1-((4-(3-(pyridin-4-yl)phenyl)thiazol-2-yl)amino)butan-2-yl)benzamide] | 0.1 to 1 | >70 | 0.1 to 1 | >70 |  |  |
| NC[C@H]1CC[C@@H](c2cccc(-c3csc(NC(=O)CNC(=O)c4ccc(N)cc4)n3)c2)CC1 [Compound 175, 4-amino-N-(2-((4-(3-((1s,4s)-4-(aminomethyl)cyclohexyl)phenyl)thiazol-2-yl)amino)-2-oxoethyl)benzamide] | 0.1 to 1 | >90 | 0.1 to 1 | >80 |  |  |
| COCC[C@H](NC(=O)c1ccc(N)cc1)C(=O)Nc1nc(-c2cccc(-c3ccncc3)c2)cs1 [Compound 178, (S)-4-amino-N-(4-methoxy-1-oxo-1-((4-(3-(pyridin-4-yl)phenyl)thiazol-2-yl)amino)butan-2-yl)benzamide] | < 0.1 | >95 | < 0.1 | >95 |  |  |
| CN(C)S(=O)(=O)c1cccc(C(=O)NCC(=O)Nc2nc(-c3cccc(CN)c3)cs2)c1 [Compound 10, N-[2-[[4-[3-(aminomethyl)phenyl]thiazol-2-yl]amino]-2-oxo-ethyl]-3-(dimethylsulfamoyl)benzamide] | > 10 |  | > 10 |  | >90 | >90 |
| CSCC[C@H](NC(=O)c1ccc(CN)cc1)C(=O)Nc1nc(-c2ccccc2)cs1 [Compound 57, 4-(aminomethyl)-N-[3-methylsulfanyl-1-[(4-phenylthiazol-2-yl)carbamoyl]propyl]benzamide] | > 10 |  | > 10 |  | >90 | >90 |
| CCC[C@H](NC(=O)c1ccccc1)C(=O)Nc1nc(-c2ccccc2)cs1 [Compound 51, N-[(1S)-1-[(4-phenylthiazol-2-yl)carbamoyl]butyl]benzamide] | 1 to 10 |  | > 10 |  |  |  |
| N#Cc1ccc(-c2cccc(-c3csc(NC(=O)CNC(=O)c4ccc(N)cc4)n3)c2)cc1 [Compound 149, 4-amino-N-(2-((4-(4′-cyano-[1,1′-biphenyl]-3-yl)thiazol-2-yl)amino)-2-oxoethyl)benzamide] | < 0.1 | >80 | < 0.1 | >80 |  |  |
| COC(C)(C)Cn1ccc(-c2cccc(-c3csc(NC(=O)CNC(=O)c4ccc(N)cc4)n3)c2)n1 [Compound 232, 4-amino-N-[2-[[4-[3-[1-(2-methoxy-2-methyl-propyl)pyrazol-3-yl]phenyl]thiazol-2-yl]amino]-2-oxo-ethyl]benzamide] | 0.1 to 1 | >80 | 0.1 to 1 | >80 |  |  |
| CC(C)(O)Cn1ccc(-c2cccc(-c3csc(NC(=O)CNC(=O)c4ccc(N)cc4)n3)c2)n1 [Compound 229, 4-amino-N-[2-[[4-[3-[1-(2-hydroxy-2-methyl-propyl)pyrazol-3-yl]phenyl]thiazol-2-yl]amino]-2-oxo-ethyl]benzamide] | 0.1 to 1 | >95 | 0.1 to 1 | >95 |  |  |
| CC(=O)NCc1cccc(-c2cccc(-c3csc(NC(=O)CNC(=O)c4ccc(N)cc4)n3)c2)c1 [Compound 124, N-(2-((4-(3′-(acetamidomethyl)-[1,1′-biphenyl]-3-yl)thiazol-2-yl)amino)-2-oxoethyl)-4-aminobenzamide] | 0.1 to 1 | >95 | 0.1 to 1 | >95 |  |  |
| CC(C)CC[C@H](NC(=O)c1ccccc1)C(=O)Nc1nc(-c2ccccc2)cs1 [Compound 46, N-[(1S)-4-methyl-1-[(4-phenylthiazol-2-yl)carbamoyl]pentyl]benzamide] | 1 to 10 |  | 1 to 10 |  |  |  |
| CSCC[C@H](NC(=O)c1ccc(S(=O)(=O)N(C)C)s1)C(=O)Nc1nc(-c2ccccc2)cs1 [Compound 62, 5-(dimethylsulfamoyl)-N-[(1S)-3-methylsulfanyl-1-[(4-phenylthiazol-2-yl)carbamoyl]propyl]thiophene-2-carboxamide] | 1 to 10 |  | 1 to 10 |  | >80 | >70 |
| CS(=O)(=O)c1cccc(C(=O)NCC(=O)Nc2nc(-c3cccc(C4CCOCC4)c3)cs2)c1 [Compound 91, 3-(methylsulfonyl)-N-(2-oxo-2-((4-(3-(tetrahydro-2H-pyran-4-yl)phenyl)thiazol-2-yl)amino)ethyl)benzamide] | 0.1 to 1 | >95 | 1 to 10 | >90 |  |  |
| CN(C)S(=O)(=O)c1cccc(C(=O)N[C@@H](CN)C(=O)Nc2nc(-c3ccccc3)cs2)c1 [Compound 25, (S)—N-(3-amino-1-oxo-1-((4-phenylthiazol-2-yl)amino)propan-2-yl)-3-(N,N-dimethylsulfamoyl)benzamide] | > 10 |  | > 10 |  | >70 | >50 |
| CS(=O)(=O)c1cccc(C(=O)NCC(=O)Nc2nc(-c3cccc(-c4ccccc4)c3)cs2)c1 [Compound 36, 3-methylsulfonyl-N-[2-oxo-2-[[4-(3-phenylphenyl)thiazol-2-yl]amino]ethyl]benzamide] | < 1 |  | 1 to 10 |  | >95 | >90 |
| CN(C)S(=O)(=O)c1cccc(C(=O)NCC(=O)Nc2nc(-c3ccc4c(c3)OCCO4)cs2)c1 [Compound 15, N-(2-((4-(2,3-dihydrobenzo[b][1,4]dioxin-6-yl)thiazol-2-yl)amino)-2-oxoethyl)-3-(N,N-dimethylsulfamoyl)benzamide] | 1 to 10 |  | 1 to 10 |  | >80 | >60 |
| Nc1ccc(C(=O)NCC(=O)Nc2nc(-c3cccc(N4CCOCC4)c3)cs2)cc1 [Compound 179, 4-amino-N-(2-((4-(3-morpholinophenyl)thiazol-2-yl)amino)-2-oxoethyl)benzamide] | 0.1 to 1 | >90 | 0.1 to 1 | >95 |  |  |
| O=C(CNC(=O)c1ccc2c(c1)CCN2)Nc1nc(-c2cccc(-c3ccncc3)c2)cs1 [Compound 95, N-(2-oxo-2-((4-(3-(pyridin-4-yl)phenyl)thiazol-2-yl)amino)ethyl)indoline-5-carboxamide] | < 0.1 | >95 | < 0.1 | >95 |  |  |
| O=C(CNC(=O)c1cnc2c(c1)CCCN2)Nc1nc(-c2cccc(-c3ccncc3)c2)cs1 [Compound 102, N-(2-oxo-2-((4-(3-(pyridin-4-yl)phenyl)thiazol-2-yl)amino)ethyl)-5,6,7,8-tetrahydro-1,8-naphthyridine-3-carboxamide] | 0.1 to 1 | >80 | 0.1 to 1 | >80 |  |  |
| COc1cc(-c2cccc(-c3csc(NC(=O)CNC(=O)c4ccc(N)cc4)n3)c2)ccn1 [Compound 146, 4-amino-N-(2-((4-(3-(2-methoxypyridin-4-yl)phenyl)thiazol-2-yl)amino)-2-oxoethyl)benzamide] | < 0.1 | >95 | < 0.1 | >95 |  |  |
| CSCC[C@H](NC(=O)c1cccc(C(C)(C)C)c1)C(=O)Nc1nc(-c2ccccc2)cs1 [Compound 73, (S)-3-(tert-butyl)-N-(4-(methylthio)-1-oxo-1-((4-phenylthiazol-2-yl)amino)butan-2-yl)benzamide] | < 1 |  | 1 to 10 |  | >50 | >30 |
| COC(=O)N1CCC=C(c2csc(NC(=O)CNC(=O)c3ccc(N)cc3)n2)C1 [Compound 110, methyl 3-(2-(2-(4-aminobenzamido)acetamido)thiazol-4-yl)-5,6-dihydropyridine-1(2H)-carboxylate] | 0.1 to 1 | >80 | 1 to 10 | >80 |  |  |
| O=C(CNC(=O)c1ccc2[nH]ncc2c1)Nc1nc(-c2cccc(-c3ccncc3)c2)cs1 [Compound 96, N-(2-oxo-2-((4-(3-(pyridin-4-yl)phenyl)thiazol-2-yl)amino)ethyl)-1H-indazole-5-carboxamide] | 0.1 to 1 | >70 | 1 to 10 | >70 |  |  |
| NC[C@H]1CC[C@H](c2cccc(-c3csc(NC(=O)CNC(=O)c4ccc(N)cc4)n3)c2)CC1 [Compound 174, 4-amino-N-(2-((4-(3-((1r,4r)-4-(aminomethyl)cyclohexyl)phenyl)thiazol-2-yl)amino)-2-oxoethyl)benzamide] | 0.1 to 1 | >80 | 0.1 to 1 | >80 |  |  |
| CC(C)(O)c1cccc(C(=O)NCC(=O)Nc2nc(-c3ccccc3)cs2)c1 [Compound 61, 3-(2-hydroxypropan-2-yl)-N-(2-oxo-2-((4-phenylthiazol-2-yl)amino)ethyl)benzamide] | 1 to 10 |  | 1 to 10 |  | >80 | >50 |
| CN(C)C(=O)c1cccc(C(=O)NCC(=O)Nc2nc(-c3ccccc3)cs2)c1 [Compound 78] | > 10 |  | > 10 |  |  |  |
